One series is described as follows: water solubility (glass). Format: physicochemical.
A short description of a further series: log pow. It counts as physicochemical. As to conditions: octanol/water.
Series [1] in a line: glass temperature of the compound. Format: physicochemical.
Series [2] can be described thus: hydrolytic stability (t½) at 20° C. Format: physicochemical. To be noted: buffer.
The nature of series [3]: physical stability (t½ induction) at 40° C./75% RH. Format: physicochemical.

As a reminder, the melting point is the temperature, or range, at which the solid turns liquid. By logP is commonly meant a log measure of how a compound divides between an organic and an aqueous phase. As usually defined, the half-life is how long it takes for the measured level to halve.

As for `CC(=O)OC1C(O[C@@H]2OC(COC(=O)C3O[C@H](OC(C)=O)C(OC(C)=O)C(OC(C)=O)[C@@H]3OC(C)=O)[C@@H](OC(C)=O)C(OC(C)=O)C2OC(C)=O)OC(COC(=O)C2O[C@H](OC(C)=O)C(OC(C)=O)C(OC(C)=O)[C@H]2OC(C)=O)[C@@H](OC(C)=O)C1OC(C)=O` (stereo partly drawn) [Example 1, di(β-tetraacetylglucuronyl)hexaacetyltrehalose], the melting point was 156 °C. Also, the “water solubility (glass)” value in the series “water solubility (glass)” is 9.5 ppm. The logP in “log pow” turned out to be 2.9. In series [1], this compound displayed a glass temperature of 110 °C. The compound also gave a half-life in series [2] (pH 4) of 720 min. For the same compound, the half-life in series [2] (pH 7) is 840 min. For the same compound, the half-life in series [2] (pH 9) was < 60 min. The “physical stability (t½ induction)” value in series [3] is >49 days.

The values are drawn from patent US7220731B2, “Derivatised carbohydrates and their use in solid delivery systems” (Elan Drug Delivery Limited, priority 2000, dated 2007).
